Experiment [1] concerns the target GSK3β (Homo sapiens, UniProt P49841). Kind of experiment: Inhibitory activity against GSK3β (TPK1), 33P-ATP phosphorylation of prephosphorylated GS1 peptide. Type of experiment: biochemical. How it is done:
Two different protocols can be used.
In a first protocol: 7.5 μM of prephosphorylated GS1 peptide and 10 μM ATP (containing 300,000 cpm of 33P-ATP) were incubated in 25 mM Tris-HCl, pH 7.5, 0.6 mM DTT, 6 mM MgCl2, 0.6 mM EGTA, 0.05 mg/ml BSA buffer for 1 hour at room temperature in the presence of GSK3β (total reaction volume: 100 microliters).
In a second protocol: 4.1 μM of prephosphorylated GS1 peptide and 42 μM ATP (containing 260,000 cpm 33P-ATP) were incubated in 80 mM Mes-NaOH, pH 6.5, 1 mM Mg acetate, 0.5 mM EGTA, 5 mM 2-mercaptoethanol, 0.02% Tween 20, 10% glycerol buffer for 2 hours at room temperature in the presence of GSK3β. Inhibitors were solubilised in DMSO (final solvent concentration in the reaction medium, 1%).
The reaction was stopped with 100 microliters of a solution made of 25 g polyphosphoric acid (85% P2O5), 126 ml 85% H3PO4, H2O to 500 ml and then diluted to 1:100 before use. An aliquot of the reaction mixture was then transferred to Whatman P81 cation exchange filters and rinsed with the solution described above. Incorporated 33P radioactivity was determined by liquid scintillation spectrometry.
The phosphorylated GS-1 peptide had the following sequence: NH2-[…](P)EDEE-COOH.
The GSK3β inhibitory activity of the compounds of the present invention are expressed in IC50, and as an illustration the range of IC50's of the compounds in table 1 is between 2 nanomolar to 2 micromolar concentrations, of the compounds in table 2 is between 30 nanomolar to 2 micromolar concentrations and of the compounds in table 3 is between 1 nanomolar to 2 micromolar concentrations.

Experiment [2] deals with cdk5/p25 (Homo sapiens, UniProt Q00535). Kind of experiment: Inhibitory activity against cdk5/p25 (TPK2), 33P-ATP phosphorylation of Histone H1. Type of experiment: biochemical. The protocol:
The following protocol may be used:
0.4 mg/ml Histone H1 and 10 μM ATP (containing 300,000 cpm of ^33P-ATP) were incubated in 50 mM Hepes, pH 7.2, 1 mM DTT, 1 mM MgCl2, 1 mM EGTA, 0.02% Tween 20 buffer for 1 hour at room temperature in the presence of cdk5/p25 (total reaction volume: 100 microliters).
Inhibitors were solubilised in DMSO (final solvent concentration in the reaction medium, 1%).
The reaction was stopped with 100 microliters of a solution of 25 g polyphosphoric acid (85% P2O5), 126 ml 85% H3PO4, H2O to 500 ml (diluted to 1:100 before use). An aliquot of the reaction mixture was then transferred to Whatman P81 cation exchange filters and rinsed with the solution described above. Incorporated ^33P radioactivity was determined by liquid scintillation spectrometry.
The cdk5/p25 inhibitory activity of the compounds of the present invention are expressed as IC50 values. Typically, 3-fold serial dilutions of the inhibitor over at least a 1000-fold concentration range are used.

GSK3β, sequence (P49841 whole entry, species assumed): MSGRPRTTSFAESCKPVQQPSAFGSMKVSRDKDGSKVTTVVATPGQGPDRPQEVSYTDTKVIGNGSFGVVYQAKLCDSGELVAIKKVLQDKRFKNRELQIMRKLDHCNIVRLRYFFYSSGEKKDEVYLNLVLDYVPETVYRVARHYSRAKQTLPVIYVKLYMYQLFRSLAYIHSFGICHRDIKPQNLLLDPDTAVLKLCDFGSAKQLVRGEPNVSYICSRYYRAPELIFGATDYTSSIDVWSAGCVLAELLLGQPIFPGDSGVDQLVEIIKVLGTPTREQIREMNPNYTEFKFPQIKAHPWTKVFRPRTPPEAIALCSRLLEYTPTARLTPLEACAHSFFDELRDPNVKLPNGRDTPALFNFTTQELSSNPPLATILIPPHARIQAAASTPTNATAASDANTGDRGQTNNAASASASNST
cdk5/p25, sequence (Q00535 whole entry, species assumed): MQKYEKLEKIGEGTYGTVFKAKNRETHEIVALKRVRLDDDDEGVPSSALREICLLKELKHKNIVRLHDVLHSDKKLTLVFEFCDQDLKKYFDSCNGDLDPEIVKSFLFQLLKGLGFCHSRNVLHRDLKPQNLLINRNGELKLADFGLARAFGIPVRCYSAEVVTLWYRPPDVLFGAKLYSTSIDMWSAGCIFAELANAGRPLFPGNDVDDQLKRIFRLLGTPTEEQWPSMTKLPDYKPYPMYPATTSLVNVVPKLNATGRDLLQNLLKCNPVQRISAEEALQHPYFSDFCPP
cdk5/p25, sequence (Q15078 99-307 partner limits assumed, species assumed): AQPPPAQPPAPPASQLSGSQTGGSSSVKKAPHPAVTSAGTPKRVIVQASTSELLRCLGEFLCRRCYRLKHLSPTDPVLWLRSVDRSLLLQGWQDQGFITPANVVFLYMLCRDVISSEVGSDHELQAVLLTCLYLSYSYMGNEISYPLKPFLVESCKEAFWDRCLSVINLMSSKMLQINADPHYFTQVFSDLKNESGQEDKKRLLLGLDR

Usually IC50 stands for the point on the concentration scale where inhibition reaches its midpoint. High values mean weaker potency in that assay, low ones greater potency in that assay. On to `O=c1cc(-c2ccncn2)nc2n1CCCN2C[C@@H](O)c1ccccc1` [Table 1 No. 9, 9-(2(S)-Hydroxy-2-phenyl-ethyl)-2-(pyrimidin-4-yl)-6,7,8,9-tetrahydro-pyrimido[1,2-a]pyrimidin-4-one], for which the IC50 amounted to 2 nM in experiment [1] and 490 nM in experiment [2].

Consider `Cc1c(-c2ccncn2)nc2n(c1=O)CCCN2CC(=O)c1ccccc1` [Table 1 No. 23, 3-Methyl-9-(2-oxo-2-phenyl-ethyl)-2-(pyrimidin-4-yl)-6,7,8,9-tetrahydro-pyrimido[1,2-a]pyrimidin-4-one], for which the IC50 in experiment [1] is 32 nM; in experiment [2], 754 nM.

With `COc1ccccc1CCN1CC(C)(C)Cn2c1nc(-c1ccncn1)cc2=O` [Table 1 No. 47, 9-[2-(2-Methoxy-phenyl)-ethyl]-7,7-dimethyl-2-(pyrimidin-4-yl)-6,7,8,9-tetrahydro-pyrimido[1,2-a]pyrimidin-4-one], the IC50 in experiment [1] is 5 nM; in experiment [2], greater than 1000 nM.

Turning to `CC1(C)CCn2c(nc(-c3ccncn3)cc2=O)N1C[C@@H](O)c1ccccc1` [Table 3 No. 11, 9-[2(S)-Hydroxy-2-phenyl-ethyl]-8,8-dimethyl-2-(pyrimidin-4-yl)-6,7,8,9-tetrahydro-pyrimido[1,2-a]pyrimidin-4-one], the half-inhibitory concentration (IC50) in experiment [1] was found to be 4 nM; in experiment [2], 1180 nM.

As for `COc1cc(F)ccc1CCN1CCCn2c1nc(-c1ccncn1)cc2=O` [Table 1 No. 91, 9-[2-(4-Fluoro-2-methoxy-phenyl)-ethyl]-2-(pyrimidin-4-yl)-6,7,8,9-tetrahydro-pyrimido[1,2-a]pyrimidin-4-one], the IC50 in experiment [1] is 3.5 nM; in experiment [2] it was greater than 1000 nM.

As for `COc1cc(F)ccc1C(O)CN1CC(C)(C)Cn2c1nc(-c1ccncn1)cc2=O` (racemic) [Table 1 No. 69, 9-[2-(4-Fluoro-2-methoxy-phenyl)-2-hydroxy-ethyl]-7,7-dimethyl-2-(pyrimidin-4-yl)-6,7,8,9-tetrahydro-pyrimido[1,2-a]pyrimidin-4-one], the IC50 in experiment [1] was 4 nM; in experiment [2] it was greater than 1000 nM.

For `CC1CCn2c(nc(-c3ccncn3)cc2=O)N1C[C@@H](O)c1ccccc1` (stereo partly drawn) [Table 3 No. 7, 9-[2(S)-Hydroxy-2-phenyl-ethyl]-8-methyl-2-(pyrimidin-4-yl)-6,7,8,9-tetrahydro-pyrimido[1,2-a]pyrimidin-4-one], the IC50 in experiment [1] worked out at 12 nM; in experiment [2], 833 nM.

For the compound `CC1(C)CN(C[C@@H](O)c2ccccc2)c2nc(-c3ccncn3)cc(=O)n2C1` [Table 1 No. 19, 9-(2(S)-Hydroxy-2-phenyl-ethyl)-7,7-dimethyl-2-(pyrimidin-4-yl)-6,7,8,9-tetrahydro-pyrimido[1,2-a]pyrimidin-4-one], the values for the IC50 in experiment [1] and in experiment [2] were 8 nM and 377 nM, respectively.

Take `CC1(C)CCn2c(nc(-c3ccncn3)cc2=O)N1C[C@@H](O)c1ccc(Cl)cc1` [Table 3 No. 35, 9-[2-(4-Chloro-phenyl)-2(S)-hydroxy-ethyl]-8,8-dimethyl-2-(pyrimidin-4-yl)-6,7,8,9-tetrahydro-pyrimido[1,2-a]pyrimidin-4-one]: the IC50 in experiment [1] is 2 nM; in experiment [2], greater than 1000 nM.

Consider `O=c1c(Cl)c(-c2ccncn2)nc2n1CCCN2C[C@@H](O)c1ccccc1` [Table 1 No. 24, 3-Chloro-9-(2(S)-hydroxy-2-phenyl-ethyl)-2-(pyrimidin-4-yl)-6,7,8,9-tetrahydro-pyrimido[1,2-a]pyrimidin-4-one], for which the IC50 in experiment [1] was greater than 100 nM; in experiment [2], 833 nM.
